Laboratory results from article PMC6005348, “Betahistine Treatment in a Cat Model of Vestibular Pathology: Pharmacokinetic and Pharmacodynamic Approaches” (Frontiers in Neurology, 2018).

System: unilateral vestibular neurectomized cats (UVN)
Assay: Support surface measurement: recovery of static posture after unilateral vestibular neurectomy
Format: in vivo, cat
Conditions: for Normalized posture area: DAY 2 of treatment, pre-operative value = 1, control 4.6
Experimental: We have previously described the surgery for vestibular neurectomy ([35]). “Adult male cats weighing 4–5 kg were anesthetized with ketamine (20 mg/kg, i.m.; Rhône Poulenc, Mérieux, France), received an analgesic (Tolfenamic acid: tolfedine, 0.5 ml, i.m.; Vetoquinol, Lure, France) and were kept at physiological body temperature using a blanket. The vestibular nerve was sectioned on the left-side at the post-ganglion level in order to leave the auditory division intact after mastoidectomy, partial destruction of the bony labyrinth, and surgical exposure of the internal auditory canal. Animals were maintained under antibiotics for 7 days and analgesics for 3 days.”
One […] group (N = 4: cats 10–13) was submitted to a UVN and received post-operatively a vehicle (placebo group). Two groups of cats were treated with betahistine at the lower dose of 0.2 mg/kg/day (N = 3: cats 14–16) or at the higher dose of 2 mg/kg/day (N = 3: cats 17–19). Another group of cats received the combination of both betahistine at 0.2 mg/kg/day plus selegiline at the dose of 1 mg/kg/day (N = 3: cats 20–22).
Placebo treatment was pursued until full recovery of posture control in the control group, that is, 40 days on average. The same post-lesion period was investigated in the three experimental groups receiving betahistine or betahistine + selegiline.
We have described in previous papers how posture deficits and recovery were evaluated ([21]). The surface delimited by the four legs of the cat was measured while standing erect at rest, without walking. “Support surface is considered a good estimate of postural control since it reflects the cat's behavioral adaptation to compensate the static vestibulospinal deficits induced by the vestibular lesion. […] To quantify the support surface, cats were placed in a device with a graduated transparent floor that allowed them to be photographed from underneath. Five repeated measurements were done for each cat tested at each post-operative time, and an average was calculated for each experimental session. The support surface was measured as the surface delimited by the four legs by an image analysis system (Canvas, 9^TM, Deneba software, Miami, FL). Post-lesion data were compared to pre-lesion values by using individual references, each animal being its own control. Recovery of static posture function was assessed by the changes and development of the support surface over time. The recovery was considered as total when the support surface returned to the pre-operative value (unity, i.e., 1).”
Statistical analysis consisted of an ANOVA to test for changes at the different post-lesion days (2, 4, 6, 10, 15, 20, 25, 30, 35, 40 days) for the support surface in each group of cats. Repeated-measure analysis of variance was used to test (1) the effects of betahistine treatment (controls vs. treated cats), (2) the effects of the betahistine dose (0.2 vs. 2 mg/kg), and (3) the effects of additional selegiline on the lowest betahistine dose (0.2 mg/kg betahistine + 1 mg/kg selegiline).
ANOVA was followed by post-hoc analysis (Scheffe-test and multicomparison Fisher's test: Statview II software). Results were considered significant at P < 0.05. To distinguish between chronic and early effects of betahistine treatment a Two-way-ANOVA with day and treatment as discriminating factors was performed (GraphPad Prism 5.0). The Cohen's d-value (two means differences/largest standard deviation) was evaluated to test the size effect.

**Q.** Which results are given for CNCCc1ccccn1 [Betahistine, betahistine]?
**A.** Post-lesion day (D+) of complete recovery of posture (2 mg/kg betahistine group, earlier than controls): 10; Cohen's d, control versus treatment (support surface) (Betahistine (0.2 mg), D+2): 0.657; Cohen's d, control versus treatment (support surface) (Betahistine (0.2 mg), D+4): 3.289; Cohen's d, control versus treatment (support surface) (Betahistine (0.2 mg), D+6): 2.510; Cohen's d, control versus treatment (support surface) (Betahistine (0.2 mg), D+10): 2.708; Cohen's d, control versus treatment (support surface) (Betahistine (0.2 mg), D+15): 4.224; Cohen's d, control versus treatment (support surface) (Betahistine (0.2 mg), D+20): 2.064; Cohen's d, control versus treatment (support surface) (Betahistine (0.2 mg), D+25): 2.870; Cohen's d, control versus treatment (support surface) (Betahistine (0.2 mg), D+30): 5.146; Cohen's d, control versus treatment (support surface) (Betahistine (0.2 mg), D+40): -1.447; Cohen's d, control versus treatment (support surface) (Betahistine (2 mg), D+2): 2.662; Cohen's d, control versus treatment (support surface) (Betahistine (2 mg), D+4): 3.616; Cohen's d, control versus treatment (support surface) (Betahistine (2 mg), D+6): 2.799; Cohen's d, control versus treatment (support surface) (Betahistine (2 mg), D+10): 5.398; Cohen's d, control versus treatment (support surface) (Betahistine (2 mg), D+15): 7.246; Cohen's d, control versus treatment (support surface) (Betahistine (2 mg), D+20): 13.857; Cohen's d, control versus treatment (support surface) (Betahistine (2 mg), D+25): 8.478; Cohen's d, control versus treatment (support surface) (Betahistine (2 mg), D+30): 6.512; Cohen's d, control versus treatment (support surface) (Betahistine (2 mg), D+40): 3.320; Normalized posture area (BH 0.2 mg/kg): 3.98; Normalized posture area (BH 2.0 mg/kg): 2.4; Difference from controls with respect to complete time of recovery (ANOVA) (betahistine 0.2 mg/kg, P < 0.15): did not significantly differed; Support surface versus untreated cats, Bonferroni post-test (betahistine 0.2 mg/kg, p < 0.01, first week only): significant differences at the particular D+4 and D+6 time delays; Complete time of recovery of posture (betahistine 0.2 mg/kg, same as controls): around 6 weeks; Difference from controls with respect to complete time of recovery (ANOVA) (betahistine 2 mg/kg, P < 0.026): differed significantly
